# Measured values published in patent publication US12729377B2, “RNAi agents and compositions for inhibiting expression of angiopoietin-like 3 (ANGPTL3), and methods of use” (Arrowhead Pharmaceuticals, Inc., priority 2017, dated 2026).
# In the oligonucleotide strings, read from the 5' end, every base follows the letter of its sugar. An asterisk marks phosphorothioate; unmarked linkages are phosphodiester. Other units and linkages are bracketed, terminal groups are in braces. A string of capitals states the bases alone. {NAG37} = tridentate N-acetyl-galactosamine targeting ligand, structure (NAG37)s; [invAb] = inverted abasic unit; m = 2'-O-methyl; f = 2'-fluoro
# Legend:
# ANGPTL3 gene [1] = assay: Example 2: serum total cholesterol in mice; assay type: in vivo
# Experimental: (§1) To assess the in vivo activity of ANGPTL3 RNAi agents that are designed to target different positions on the ANGPTL3 gene, six- to eight-week-old female C57bl/6 mice were used. Pre-dose serum samples were taken at day −1 after a four hour fast. At day 1, each mouse was given a single subcutaneous administration of 200 μl containing either 3 mg/kg (mpk) of an ANGPTL3 RNAi agent in D5W (dextrose in 5% water), or control (D5W) with no RNAi agent, according to the dosing groups recited in Table 7.
# (§2) Each of the RNAi agents included a modified sequence and an N-acetyl-galactosamine-containing targeting ligand conjugated to the 5′ terminal end of the sense strand. (See Tables 3, 4, and 5 for modified sequences and targeting ligand structures). The injections were performed between the skin and muscle (i.e. subcutaneous injections) into the loose skin over the neck and shoulder area. Three (3) mice in each group were tested (n=3). Serum was collected on days 8, […], 22, 29, and day 36 (for Groups 1 and 5-11 only). Mice were fasted for four hours prior to each collection. ANGPTL3 protein levels in serum were measured by ELISA assay (R&D Systems), according to the manufacturer's recommendations. Triglycerides, high-density lipoprotein (HDL), and total cholesterol in serum were measured on a Cobas® Integra 400 (Roche Diagnostics), according to the manufacturer's recommendations.
# (§3) The ANGPTL3 protein levels, triglyceride levels, HDL levels, and total cholesterol levels for each animal were normalized. For normalization, the level of ANGPTL3 protein, triglyceride, HDL, and total cholesterol, respectively, for each animal at a time point, was divided by the pre-treatment level of expression in that animal (in this case at day −1) to determine the ratio of expression “normalized to pre-treatment.” Expression at a specific time point was then normalized to the D5W control group by dividing the “normalized to pre-treatment” ratio for an individual animal by the mean “normalized to pretreatment” ratio of all mice in the D5W control group.
# ANGPTL3 protein [2] = assay: Example 2: serum ANGPTL3 protein by ELISA in mice; assay type: in vivo, C57bl/6 mice; conditions: for Avg ANGPTL3 (Average ANGPTL3 Protein Normalized to Pre-Treatment and Control): 3.0 mg/kg single subcutaneous dose on day 1, serum, female C57bl/6 mice
# Experimental: as §1, §2, §3
# ANGPTL3 gene [3] = assay: Example 2: serum triglycerides in mice; assay type: in vivo
# Experimental: as §1, §2, §3
# ANGPTL3 gene [4] = assay: Example 2: serum HDL in mice; assay type: in vivo
# Experimental: as §1, §2, §3
# ANGPTL3 gene [5] = assay: Example 8: serum total cholesterol in cynomolgus monkeys; assay type: in vivo, cynomolgus macaque (Macaca fascicularis); conditions: 3.0 mg/kg single SC injection day 1, cynos, n=2
# Experimental: (§4) Additional ANGPTL3 RNAi agents were evaluated in cynomolgus monkeys. On day 1, cynomolgus macaque (Macaca fascicularis) primates (also referred to herein as “cynos”) were administered a single subcutaneous injection of 0.3 mL/kg (approximately 1-2 mL volume, depending on animal mass) containing 3.0 mg/kg of one of ANGPTL3 RNAi agent AD05577, AD05307, AD05488, AD05654, or AD05659, each formulated in saline.
# (§5) Two (2) cynos in each group were tested (n=2). Blood samples were drawn and serum samples were analyzed on days −8 (pre-dose), 1 (pre-dose), 8, 15, 22, 29, and 36. Cynos were fasted overnight prior to each collection. ANGPTL3 protein levels in serum were measured by ELISA assay (R&D Systems), according to the manufacturer's recommendations. Triglycerides, total cholesterol, high-density lipoprotein (HDL), and low-density lipoprotein (LDL) in serum were measured on a Cobas® Integra 400 (Roche Diagnostics), according to the manufacturer's recommendations.
# (§6) The ANGPTL3 protein levels, triglyceride levels, total cholesterol levels, HDL levels, and LDL levels for each animal were normalized. For normalization, the level of ANGPTL3 protein, triglyceride, HDL, and total cholesterol, respectively, for each animal at a time point, was divided by the average pre-treatment level of expression in that animal (in this case at days −8, and 1 (pre-dose)) to determine the ratio of expression “normalized to pre-treatment.”
# ANGPTL3 gene [6] = assay: Example 8: serum HDL in cynomolgus monkeys; assay type: in vivo, cynomolgus macaque (Macaca fascicularis); conditions: 3.0 mg/kg single SC injection day 1, cynos, n=2
# Experimental: as §4, §5, §6
# ANGPTL3 gene [7] = assay: Example 8: serum triglycerides in cynomolgus monkeys; assay type: in vivo, cynomolgus macaque (Macaca fascicularis); conditions: 3.0 mg/kg single SC injection day 1, cynos, n=2
# Experimental: as §4, §5, §6
# ANGPTL3 protein [8] = assay: Example 8: serum ANGPTL3 protein by ELISA in cynomolgus monkeys; assay type: in vivo, cynomolgus macaque (Macaca fascicularis); conditions: for Avg ANGPTL3 protein normalized to pre-treatment: 3.0 mg/kg single SC injection day 1, cynos, n=2
# Experimental: as §4, §5, §6
# [9] = Day 8, 3.0 mg/kg single subcutaneous dose on day 1, female C57bl/6 mice
# [10] = Day 13, 3.0 mg/kg single subcutaneous dose on day 1, female C57bl/6 mice
# [11] = Day 22, 3.0 mg/kg single subcutaneous dose on day 1, female C57bl/6 mice
# [12] = Day 29, 3.0 mg/kg single subcutaneous dose on day 1, female C57bl/6 mice
# [13] = Day 36, 3.0 mg/kg single subcutaneous dose on day 1, female C57bl/6 mice
# [14] = day 29, single 3 mg/kg subcutaneous, C57bl/6 mice
substance,measurement,setting,value
"AD05308: RNAi agent duplex: antisense AM07003-AS, sense AM07002-SS (chain 1 mU*fG*mU*fUmGfAmAfUmUfAmAfUmGfUmCfCmAfUmGfG*mA; chain 2 {NAG37}*[invAb]*mUmCmCmAmUmGmGmAfCfAfUmUmAmAmUmUmCmAmAmCmA*[invAb])",Avg Total Chol (Average Total Cholestrol Normalized to Pre-Treatment and Control),ANGPTL3 gene [1]; [9],0.671
same,Avg Total Chol (Average Total Cholestrol Normalized to Pre-Treatment and Control),ANGPTL3 gene [1]; [10],0.645
same,Avg Total Chol (Average Total Cholestrol Normalized to Pre-Treatment and Control),ANGPTL3 gene [1]; [11],0.621
same,Avg Total Chol (Average Total Cholestrol Normalized to Pre-Treatment and Control),ANGPTL3 gene [1]; [12],0.669
same,Avg Total Chol (Average Total Cholestrol Normalized to Pre-Treatment and Control),ANGPTL3 gene [1]; [13],0.905
same,Avg ANGPTL3 (Average ANGPTL3 Protein Normalized to Pre-Treatment and Control),ANGPTL3 protein [2]; Day 8,0.106
same,Avg ANGPTL3 (Average ANGPTL3 Protein Normalized to Pre-Treatment and Control),ANGPTL3 protein [2]; Day 13,0.076
same,Avg ANGPTL3 (Average ANGPTL3 Protein Normalized to Pre-Treatment and Control),ANGPTL3 protein [2]; Day 22,0.084
same,Avg ANGPTL3 (Average ANGPTL3 Protein Normalized to Pre-Treatment and Control),ANGPTL3 protein [2]; Day 29,0.088
same,Avg ANGPTL3 (Average ANGPTL3 Protein Normalized to Pre-Treatment and Control),ANGPTL3 protein [2]; Day 36,0.167
same,ANGPTL3 protein normalized to pre-treatment and control,ANGPTL3 protein [2]; [14],0.088
same,reduction in ANGPTL3 protein compared to control,ANGPTL3 protein [2]; [14],approximately 91%
same,Avg TG (Average Triglycerides Normalized to Pre-Treatment and Control),ANGPTL3 gene [3]; [9],0.375
same,Avg TG (Average Triglycerides Normalized to Pre-Treatment and Control),ANGPTL3 gene [3]; [10],0.554
same,Avg TG (Average Triglycerides Normalized to Pre-Treatment and Control),ANGPTL3 gene [3]; [11],0.399
same,Avg TG (Average Triglycerides Normalized to Pre-Treatment and Control),ANGPTL3 gene [3]; [12],0.473
same,Avg TG (Average Triglycerides Normalized to Pre-Treatment and Control),ANGPTL3 gene [3]; [13],0.430
same,Avg HDL (Average HDL Normalized to Pre-Treatment and Control),ANGPTL3 gene [4]; [9],0.634
same,Avg HDL (Average HDL Normalized to Pre-Treatment and Control),ANGPTL3 gene [4]; [10],0.583
same,Avg HDL (Average HDL Normalized to Pre-Treatment and Control),ANGPTL3 gene [4]; [11],0.572
same,Avg HDL (Average HDL Normalized to Pre-Treatment and Control),ANGPTL3 gene [4]; [12],0.606
same,Avg HDL (Average HDL Normalized to Pre-Treatment and Control),ANGPTL3 gene [4]; [13],0.854
"AD05488: RNAi agent duplex: antisense AM07235-AS, sense AM07234-SS (antisense mU*fA*mC*fUmGfAmUfCmAfAmAfUmAfUmGfUmUfGmAfG*mC; sense {NAG37}*[invAb]*mGmCmUmCmAmAmCmAfUfAfUmUmUmGmAmUmCmAmGmUmA*[invAb])",Avg Total Chol normalized to pre-treatment,ANGPTL3 gene [5]; Day 8,0.840
same,Avg Total Chol normalized to pre-treatment,ANGPTL3 gene [5]; Day 15,0.779
same,Avg Total Chol normalized to pre-treatment,ANGPTL3 gene [5]; Day 22,0.743
same,Avg Total Chol normalized to pre-treatment,ANGPTL3 gene [5]; Day 29,0.674
same,Avg Total Chol normalized to pre-treatment,ANGPTL3 gene [5]; Day 36,0.722
same,Average HDL Normalized to Pre-Treatment,ANGPTL3 gene [6]; Day 8,0.832
same,Average HDL Normalized to Pre-Treatment,ANGPTL3 gene [6]; Day 15,0.695
same,Average HDL Normalized to Pre-Treatment,ANGPTL3 gene [6]; Day 22,0.688
same,Average HDL Normalized to Pre-Treatment,ANGPTL3 gene [6]; Day 29,0.657
same,Average HDL Normalized to Pre-Treatment,ANGPTL3 gene [6]; Day 36,0.622
same,Avg TG normalized to pre-treatment,ANGPTL3 gene [7]; Day 8,0.727
same,Avg TG normalized to pre-treatment,ANGPTL3 gene [7]; Day 15,0.586
same,Avg TG normalized to pre-treatment,ANGPTL3 gene [7]; Day 22,0.399
same,Avg TG normalized to pre-treatment,ANGPTL3 gene [7]; Day 29,0.534
same,Avg TG normalized to pre-treatment,ANGPTL3 gene [7]; Day 36,0.364
same,Avg ANGPTL3 protein normalized to pre-treatment,ANGPTL3 protein [8]; Day 8,0.423
same,Avg ANGPTL3 protein normalized to pre-treatment,ANGPTL3 protein [8]; Day 15,0.334
same,Avg ANGPTL3 protein normalized to pre-treatment,ANGPTL3 protein [8]; Day 22,0.343
same,Avg ANGPTL3 protein normalized to pre-treatment,ANGPTL3 protein [8]; Day 29,0.276
same,Avg ANGPTL3 protein normalized to pre-treatment,ANGPTL3 protein [8]; Day 36,0.229
same,reduction in ANGPTL3 protein compared to pre-treatment,"ANGPTL3 protein [8]; all measured time points, single 3.0 mg/kg subcutaneous, cynomolgus monkeys",reduction
